Source: US10689363B2 (Merck Patent GmbH, priority 2017, dated 2020)
≈ marks a conversion by molar mass, not a printed value. Where two headings read alike, the source gives them in different places.

How the values were obtained:
Format in all cases: physicochemical
[1] = Water Vapour Sorption isotherm (25° C., DVS-Intrinsic), hygroscopicity acc. to Ph. Eur. 5.11.; conditions: for water uptake levels: 25° C.
Method: (§1) (based on multiple measurements on different samples of form A2). […] DSC scan of form A2 was acquired on a Mettler-Toledo DSC 821 with a heating rate of 50 K/min, using nitrogen purge gas at 50 mL/min. TGA scan of form A2 was acquired on a Mettler-Toledo TGA 851 with a heating rate of 5 K/min, using nitrogen purge gas at 50 mL/min. […] Eur. Criteria (section 5.11.). Water Vapour Sorption isotherm was acquired on a DVS-Intrinsic system from SMS.
(based on multiple measurements on different samples of form NF5). […] Eur. Criteria (section 5.11.). […] Water Vapour Sorption isotherm was acquired on a DVS-Intrinsic system from SMS.
(based on multiple measurements on one sample of form NF6). […] Eur. Criteria (section 5.11.). […] Water Vapour Sorption isotherm was acquired on a DVS-Intrinsic system from SMS.
Eur. Criteria (section 5.11.). […] Water Vapour Sorption isotherm was acquired on a DVS-Intrinsic system from SMS.
as §1, with “Other physical properties of” for “(based on multiple measurements on different samples of”, “form Fumarate-NF1 include the following: ^1H-NMR spectroscopic data reveal a API:Fumarate molar ratio of 1:1.” for “form A2).”, “form Fumarate-NF1” for “form A2”, “of 5” for “of 50”, “5.11.). […]” for “5.11.).”
Other physical properties of form Maleate-NF1 include the following: ^1H-NMR spectroscopic data reveal a API:Maleate molar ratio of 1:1. […] DSC scan of form Maleate-NF1 was acquired on a Mettler-Toledo DSC 821 with a heating rate of 5 K/min, using nitrogen purge gas at 50 mL/min. TGA scan of form Maleate-NF1 was acquired on a Mettler-Toledo TGA 851 with a heating rate of 5 K/min, using nitrogen purge gas at 50 mL/min. […] Form Maleate-NF1 can be classified as non-hygroscopic according to Ph. Eur. Criteria (section 5.11.). […] Water Vapour Sorption isotherm was acquired on a DVS-Intrinsic system from SMS.
Other physical properties of form Citrate-NF1 include the following: ^1H-NMR spectroscopic data reveal a API:Citrate molar ratio of 1:1. […] DSC scan of form Citrate-NF1 was acquired on a Mettler-Toledo DSC 821 with a heating rate of 5 K/min, using nitrogen purge gas at 50 mL/min. TGA scan of form Citrate-NF1 was acquired on a Mettler-Toledo TGA 851 with a heating rate of 5 K/min, using nitrogen purge gas at 50 mL/min. […] Eur. Criteria (section 5.11.). […] Water Vapour Sorption isotherm was acquired on a DVS-Intrinsic system from SMS.
(based on multiple measurements on different samples of form A1). […] DSC scan of form A1 was acquired on a Mettler-Toledo DSC 821 with a heating rate of 50 K/min, using nitrogen purge gas at 50 mL/min. TGA scan of form A1 was acquired on a Mettler-Toledo TGA 851 with a heating rate of 5 K/min, using nitrogen purge gas at 50 mL/min. […] Eur. Criteria (section 5.11.). […] Water Vapour Sorption isotherm was acquired on a DVS-Intrinsic system from SMS. […] Dissolution level of form A1 in Fasted-State Simulated Intestinal Fluid [FaSSIF, pH 6.5] at 37° C. was determined to be approx. 36 μg/mL (after 2 h), and dissolution level of form A1 in Fed-State Simulated Intestinal Fluid [FeSSIF, pH 5.0] at 37° C. was determined to be approx. 214 μg/mL (after 2 h), respectively (see example 11).
All forms were characterized according to standard methods which are found in e.g. Rolf Hilfiker, ‘Polymorphism in the Pharmaceutical Industry’. Wiley-VCH. Weinheim 2006 (Chapter 6: X-Ray Diffraction. Chapter 6: Vibrational Spectroscopy. Chapter 3: Thermal Analysis, Chapter 9: Water Vapour Sorption, and references therein); and H. G. Brittain, ‘Polymorphism in Pharmaceutical Solids. Vol. 95. Marcel Dekker Inc., New York 1999 (Chapter 6 and references therein).

[2] = Mini-dissolution in FaSSIF / FeSSIF medium at 37° C.; conditions: for Dissolution levels in FaSSIF pH 6.5: FaSSIF pH 6.5, 37° C.; for Dissolution levels in FeSSIF pH 5.0: FeSSIF pH 5.0, 37° C.
Method: All dispersions were agitated at 37° C. for up to 2 hours. At defined time intervals (30 min. 60 min, 120 min), sample aliquots of homogeneous dispersions were withdrawn by a syringe, and filtrated via syringe filter adapters (PTFE, 0.45 μm).

[3] = Thermodynamic solubility (24 h, 37° C.) in FaSSIF medium or USP Phosphate buffer; conditions: for solubility thermodynamic at 24 h: 37 °C, thermodynamic from solid
[4] = 120 min (2 h), listed as form Malonate-NF1
[5] = 120 min (2 h), listed as form Oxalate-NF1
[6] = 120 min (2 h), listed as form Succinate-NF1

Row | SMILES | hygroscopicity classification according to Ph. Eur. Criteria (section 5.11.) [1] | Dissolution levels in FaSSIF pH 6.5 ([2]; 30 min) | Dissolution levels in FaSSIF pH 6.5 ([2]; 60 min) | Dissolution levels in FaSSIF pH 6.5 ([2]; 120 min (2 h)) | dissolution levels (2 h), factor higher vs form A1 ([2]; FaSSIF) | Dissolution levels in FeSSIF pH 5.0 ([2]; 30 min) | Dissolution levels in FeSSIF pH 5.0 ([2]; 60 min) | Dissolution levels in FeSSIF pH 5.0 ([2]; 120 min (2 h)) | dissolution levels (2 h), factor higher vs form A1 ([2]; FeSSIF) | other results
1 | C=CC(=O)N1CCC(CNc2ncnc(N)c2-c2ccc(Oc3ccccc3)cc2)CC1.O=C(O)CCC(=O)O [Citrate-NF1, 1-(4-{[6-Amino-5-(4-phenoxy-phenyl)-pyrimidin-4-ylamino]-methyl}-piperidin-1-yl)-propenone] | Slightly hygroscopic | – | – | – | – | – | – | – | – | hygroscopicity classification according to Ph. Eur. Criteria (section 5.11.) ([1]; listed as form Citrate-NF1): slightly hygroscopic; water uptake levels ([1]; relative humidity range 0-80% rh, listed as form Citrate-NF1): < 2.0 wt %
2 | C=CC(=O)N1CCC(CNc2ncnc(N)c2-c2ccc(Oc3ccccc3)cc2)CC1.O=C(O)CCC(=O)O [Malonate-NF1, 1-(4-{[6-Amino-5-(4-phenoxy-phenyl)-pyrimidin-4-ylamino]-methyl}-piperidin-1-yl)-propenone] | Slightly hygroscopic | 47 μg/mL | 53 μg/mL | 75 μg/mL | ~2 | 651 μg/mL | 694 μg/mL | 740 μg/mL | ~3.5 | Dissolution levels in FaSSIF pH 6.5 [2, 4]: approx. 75 μg/mL; Dissolution levels in FeSSIF pH 5.0 [2, 4]: approx. 740 μg/mL; hygroscopicity classification according to Ph. Eur. Criteria (section 5.11.) ([1]; listed as form Malonate-NF1): slightly hygroscopic; water uptake levels ([1]; relative humidity range 0-80% rh, listed as form Malonate-NF1): < 0.5 wt %
3 | C=CC(=O)N1CCC(CNc2ncnc(N)c2-c2ccc(Oc3ccccc3)cc2)CC1 [form A2, 1-(4-{[6-Amino-5-(4-phenoxy-phenyl)-pyrimidin-4-ylamino]-methyl}-piperidin-1-yl)-propenone] | slightly hygroscopic | – | – | – | – | – | – | – | – | thermodynamic solubility compared to form A1 (in words) [3]: higher; thermodynamic solubility, factor higher vs form A1 ([3]; FaSSIF): ~1.5; solubility thermodynamic at 24 h ([3]; FaSSIF medium, pH 6.5, fassif, FaSSIF pH 6.5, 37° C., read-out: Thermodynamic solubility FaSSIF pH 6.5): ~33 µg/mL (≈ 76.8 µM); thermodynamic solubility, factor higher vs form A1 ([3]; PBS buffer pH 7.4): ~2; solubility thermodynamic at 24 h ([3]; USP phosphate buffer, pH 7.4, aqueous buffer, USP Phosphate buffer pH 7.4, 37° C., read-out: Thermodynamic solubility PBS buffer 7.4): ~27 µg/mL (≈ 62.9 µM); hygroscopicity classification according to Ph. Eur. Criteria (section 5.11.) ([1]; listed as A2): Slightly hygroscopic; water uptake levels ([1]; relative humidity range 0-98% rh): ≤ 1 wt %; water uptake levels ([1]; relative humidity range 90-98% rh): ≤ 2 wt %
4 | C=CC(=O)N1CCC(CNc2ncnc(N)c2-c2ccc(Oc3ccccc3)cc2)CC1.O=C(O)CCC(=O)O [Maleate-NF1, 1-(4-{[6-Amino-5-(4-phenoxy-phenyl)-pyrimidin-4-ylamino]-methyl}-piperidin-1-yl)-propenone] | Non-hygroscopic | – | – | – | – | – | – | – | – | hygroscopicity classification according to Ph. Eur. Criteria (section 5.11.) ([1]; listed as form Maleate-NF1): non-hygroscopic; water uptake levels ([1]; relative humidity range 0-80% rh, listed as form Maleate-NF1): < 0.5 wt %
5 | C=CC(=O)N1CCC(CNc2ncnc(N)c2-c2ccc(Oc3ccccc3)cc2)CC1.O=C(O)CCC(=O)O [Oxalate-NF1, 1-(4-{[6-Amino-5-(4-phenoxy-phenyl)-pyrimidin-4-ylamino]-methyl}-piperidin-1-yl)-propenone] | Slightly hygroscopic | 50 μg/mL | 54 μg/mL | 58 μg/mL | ~1.5 | 600 μg/mL | 700 μg/mL | 740 μg/mL | ~3.5 | Dissolution levels in FaSSIF pH 6.5 [2, 5]: approx. 58 μg/mL; Dissolution levels in FeSSIF pH 5.0 [2, 5]: approx. 740 μg/mL; hygroscopicity classification according to Ph. Eur. Criteria (section 5.11.) ([1]; listed as form Oxalate-NF1): slightly hygroscopic; water uptake levels ([1]; relative humidity range 0-80% rh, listed as form Oxalate-NF1): < 1.0 wt %
6 | C=CC(=O)N1CCC(CNc2ncnc(N)c2-c2ccc(Oc3ccccc3)cc2)CC1.O=C(O)CCC(=O)O [Fumarate-NF1, 1-(4-{[6-Amino-5-(4-phenoxy-phenyl)-pyrimidin-4-ylamino]-methyl}-piperidin-1-yl)-propenone] | Slightly hygroscopic | – | – | – | – | – | – | – | – | hygroscopicity classification according to Ph. Eur. Criteria (section 5.11.) ([1]; listed as form Fumarate-NF1): slightly hygroscopic; water uptake levels ([1]; relative humidity range 0-80% rh, listed as form Fumarate-NF1): < 0.5 wt %
7 | C=CC(=O)N1CCC(CNc2ncnc(N)c2-c2ccc(Oc3ccccc3)cc2)CC1.O=C(O)CCC(=O)O [Succinate-NF1, 1-(4-{[6-Amino-5-(4-phenoxy-phenyl)-pyrimidin-4-ylamino]-methyl}-piperidin-1-yl)-propenone] | Slightly hygroscopic | 92 μg/mL | 95 μg/mL | 100 μg/mL | ~3 | 625 μg/mL | 708 μg/mL | 743 μg/mL | ~3.5 | Dissolution levels in FaSSIF pH 6.5 [2, 6]: approx. 100 μg/mL; Dissolution levels in FeSSIF pH 5.0 [2, 6]: approx. 743 μg/mL; hygroscopicity classification according to Ph. Eur. Criteria (section 5.11.) ([1]; listed as form Succinate-NF1): slightly hygroscopic; water uptake levels ([1]; relative humidity range 0-80% rh, listed as form Succinate-NF1): ≤ 2.0 wt %
